Measured values published in patent US12139492B2 (Endotarget Inc., priority 2021, dated 2024).
Read-outs that look alike come from different tables or passages of the source.

What was measured:
[1] = test system: Mino cells; experiment: Antiproliferative effect, MTS cell viability assay, Mino cells; assay type: cell-based; settings: Homo sapiens, Mino mantle cell lymphoma cells, read-out: IC50 (anti-proliferation) Mino cells
Procedure, shortened: (§1)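 Cells were exposed to compound at 0, 0.001, 0.01, 0.1, 1 and 10 μM for 72 h. Viability was then measured by MTS assay, reading formazan produced by metabolically active cells as absorbance at 490 nm.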

[2] = target: BTK (Homo sapiens, UniProt Q06187); experiment: Degradation of BTK protein in Namalwa cells (Western blot; DC50, Dmax); settings: for DC50: cell line not given
[3] = test system: JeKo-1 cells; experiment: Antiproliferative effect, MTS cell viability assay, JeKo-1 cells; assay type: cell-based; settings: Homo sapiens; JeKo-1 mantle cell lymphoma cells; read-out: IC50 (anti-proliferation) JeKO-1 cells
Procedure, shortened: as §1

[4] = read-out: DC50 (BTK degradation), concentration giving 50% reduction of BTK expression level
[5] = read-out: Dmax (BTK degradation)

BTK, sequence (Q06187 whole entry): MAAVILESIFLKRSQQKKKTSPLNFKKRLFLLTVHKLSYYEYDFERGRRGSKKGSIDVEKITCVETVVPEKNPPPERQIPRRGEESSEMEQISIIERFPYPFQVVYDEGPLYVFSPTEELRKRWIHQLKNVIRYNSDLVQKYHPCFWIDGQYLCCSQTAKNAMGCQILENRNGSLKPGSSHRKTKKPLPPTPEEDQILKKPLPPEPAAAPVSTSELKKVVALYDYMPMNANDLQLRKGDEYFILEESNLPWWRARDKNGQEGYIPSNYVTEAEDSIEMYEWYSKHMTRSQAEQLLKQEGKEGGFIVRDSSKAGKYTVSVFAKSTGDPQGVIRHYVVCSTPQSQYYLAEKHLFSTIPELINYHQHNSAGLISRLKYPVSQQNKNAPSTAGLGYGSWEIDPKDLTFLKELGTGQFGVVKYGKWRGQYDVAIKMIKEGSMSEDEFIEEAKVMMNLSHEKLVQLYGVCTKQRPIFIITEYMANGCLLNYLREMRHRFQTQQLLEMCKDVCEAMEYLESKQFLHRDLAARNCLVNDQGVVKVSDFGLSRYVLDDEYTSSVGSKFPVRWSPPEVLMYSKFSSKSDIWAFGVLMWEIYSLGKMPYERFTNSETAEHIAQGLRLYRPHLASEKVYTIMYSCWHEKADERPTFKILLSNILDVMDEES

SMILES	IC50 ([1]; MINO) [µM]	Dmax [2] [%]	DC50 ([2]; BTK degradation) [µM]	IC50 [3] [µM]	degradation of BTK protein ([2]; Namalwa B lymphocyte cells, various concentrations, 24 hours, Western blot)	DC50 [2, 4] [µM]	Dmax [2, 5] [%]	IC50 [1] [µM]
NC(=O)c1c(-c2ccc(Oc3ccccc3)cc2)nn2c1NCC[C@H]2C1CCN(C2CCN(CCC3CCN(c4ccc5c(c4)CN(C4CCC(=O)NC4=O)C5=O)CC3)CC2)CC1 (stereo partly drawn) [Compound 326, (7S)-7-(1′-(2-(1-(2-(2,6-dioxopiperidin-3-yl)-1-oxoisoindolin-5-yl)piperidin-4-yl)ethyl)-[1,4′-bipiperidin]-4-yl)-2-(4-phenoxyphenyl)-4,5,6,7-tetrahydropyrazolo[1,5-a]pyrimidine-3-carboxamide]	1 to 10	> 90	0.01 to 0.05	1 to 10	–	–	–	–
NC(=O)c1c(-c2ccc(Oc3ccccc3)cc2)nn2c1NCCC2C1CCN(C2CCN(C(=O)N3CCC(C4CCN(c5ccc6c(c5)CN(C5CCC(=O)NC5=O)C6=O)CC4)CC3)CC2)CC1 (stereo not drawn) [Compound 344, 7-(1′-(1′-(2-(2,6-dioxopiperidin-3-yl)-1-oxoisoindolin-5-yl)-[4,4′-bipiperidine]-1-carbonyl)-[1,4′-bipiperidin]-4-yl)-2-(4-phenoxyphenyl)-4,5,6,7-tetrahydropyrazolo[1,5-a]pyrimidine-3-carboxamide]	1 to 10	> 90	< 0.01	< 1	–	–	–	–
Nc1ncnc2c1c(-c1ccc(Oc3ccccc3)cc1)nn2C1CCN(C2CCN(C(=O)N3CCC(CCCN4CCN(c5ccc6c(c5)C(=O)N(C5CCC(=O)NC5=O)C6=O)CC4)CC3)CC2)CC1 (stereo not drawn) [Compound 263, 5-(4-(3-(1-(4-(4-amino-3-(4-phenoxyphenyl)-1H-pyrazolo[3,4-d]pyrimidin-1-yl)-[1,4′-bipiperidine]-1′-carbonyl)piperidin-4-yl)propyl)piperazin-1-yl)-2-(2,6-dioxopiperidin-3-yl)isoindoline-1,3-dione]	1 to 10	> 90	0.01 to 0.05	> 10	–	–	–	–
Nc1ncnc2c1c(-c1ccc(Oc3ccccc3)cc1)nn2C1CCN(CC2CCN(CC3CN(c4ccc5c(c4)C(=O)N(C4CCC(=O)NC4=O)C5=O)C3)C2)CC1 (stereo not drawn) [Compound 423, 5-(3-((3-((4-(4-amino-3-(4-phenoxyphenyl)-1H-pyrazolo(3,4-d)pyrimidin-1-yl)piperidin-1-yl)methyl)pyrrolidin-1-yl)methyl)azetidin-1-yl)-2-(2,6-dioxopiperidin-3-yl)isoindoline-1,3-dione]	< 1	–	–	1 to 10	dose-dependent degradation	0.01 to 0.05	> 90	–
NC(=O)c1c(-c2ccc(Oc3ccccc3)cc2)nn2c1NCCC2C1CCN(CC2CCN(C(=O)N3CCC(N4CCC(c5ccc6c(c5)C(=O)N(C5CCC(=O)NC5=O)C6=O)CC4)CC3)CC2)CC1 (stereo not drawn) [Compound 367, 7-(1-((1-(4-(2-(2,6-dioxopiperidin-3-yl)-1,3-dioxoisoindolin-5-yl)-[1,4′-bipiperidine]-1′-carbonyl)piperidin-4-yl)methyl)piperidin-4-yl)-2-(4-phenoxyphenyl)-4,5,6,7-tetrahydropyrazolo[1,5-a]pyrimidine-3-carboxamide]	< 1	> 90	0.01 to 0.05	1 to 10	–	–	–	–
NC1=NC=NC2C1C(c1ccc(Oc3ccccc3)cc1)=NN2[C@@H]1CCCN(C(=O)N2CC(C3CN(c4ccc5c(c4)CN(C4CCC(=O)NC4=O)C5=O)C3)C2)C1 (stereo partly drawn) [Compound 498, 3-(5-(1′-((3R)-3-(4-amino-3-(4-phenoxyphenyl)-3a,7a-dihydro-1H-pyrazolo[3,4-d]pyrimidin-1-yl)piperidin-1-carbonyl)-[3,3′-biazetidin]-1-yl)-1-oxoisoindolin-2-yl)piperidine-2,6-dione]	< 1	–	–	< 1	–	< 0.01	> 90	–
NC(=O)c1c(-c2ccc(Oc3ccccc3)cc2)nn2c1NCCC2C1CCN(CC2CCN(C(=O)N3CCC(CN4CCN(c5ccc6c(c5)C(=O)N(C5CCC(=O)NC5=O)C6=O)CC4)CC3)CC2)CC1 (stereo not drawn) [Compound 369, 7-(1-((1-(4-((4-(2-(2,6-dioxopiperidin-3-yl)-1,3-dioxoisoindolin-5-yl)piperazin-1-yl)methyl)piperidine-1-carbonyl)piperidin-4-yl)methyl)piperidin-4-yl)-2-(4-phenoxyphenyl)-4,5,6,7-tetrahydropyrazolo[1,5-a]pyrimidine-3-carboxamide]	< 1	> 90	< 0.01	1 to 10	–	–	–	–
Nc1ncnc2c1c(-c1ccc(Oc3ccccc3)cc1)nn2C1CCN(CCN2CCC(Sc3ccc4c(c3)CN(C3CCC(=O)NC3=O)C4=O)CC2)CC1 (stereo not drawn) [Compound 472, 3-(5-((1-(2-(4-(4-amino-3-(4-phenoxyphenyl)-1H-pyrazolo[3,4-d]pyrimidin-1-yl)piperidin-1-yl)ethyl)piperidin-4-yl)thio)-1-oxoisoindolin-2-yl)piperidine-2,6-dione]	1 to 10	–	–	1 to 10	–	0.01 to 0.05	> 75	–
Nc1ncnc2c1c(-c1ccc(Oc3ccccc3)cc1)nn2C1CCN(C(=O)C2CN(C3CCN(c4ccc5c(c4)CN(C4CCC(=O)NC4=O)C5=O)CC3)C2)CC1 (stereo not drawn) [Compound 510, 3-(5-(4-(3-(4-(4-amino-3-(4-phenoxyphenyl)-1H-pyrazolo[3,4-d]pyrimidin-1-yl)piperidine-1-carbonyl)azetidin-1-yl)piperidin-1-yl)-1-oxoisoindolin-2-yl)piperidine-2,6-dione]	< 1	–	–	< 1	–	< 0.01	> 90	–
NC(=O)c1c(-c2ccc(Oc3ccccc3)cc2)nn2c1NCCC2C1CCN(C2CCN(C(=O)N3CCN(c4ccc5c(c4)C(=O)N(C4CCC(=O)NC4=O)C5=O)CC3)CC2)CC1 (stereo not drawn) [Compound 337, 7-(1′-(4-(2-(2,6-dioxopiperidin-3-yl)-1,3-dioxoisoindolin-5-yl)piperazine-1-carbonyl)-[1,4′-bipiperidin]-4-yl)-2-(4-phenoxyphenyl)-4,5,6,7-tetrahydropyrazolo[1,5-a]pyrimidine-3-carboxamide]	> 10	> 50	> 0.05	1 to 10	–	–	–	–
Nc1ncnc2c1c(-c1ccc(Oc3ccccc3)cc1)nn2C1CCN(C2CCN(C(=O)N3CCN(CC4CCN(c5ccc6c(c5)CN(C5CCC(=O)NC5=O)C6=O)CC4)CC3)CC2)CC1 (stereo not drawn) [Compound 242, 3-(5-(4-((4-(4-(4-amino-3-(4-phenoxyphenyl)-1H-pyrazolo[3,4-d]pyrimidin-1-yl)-[1,4′-bipiperidine]-1′-carbonyl)piperazin-1-yl)methyl)piperidin-1-yl)-1-oxoisoindolin-2-yl)piperidine-2,6-dione]	< 1	> 90	< 0.01	1 to 10	–	–	–	–
NC(=O)c1c(-c2ccc(Oc3ccccc3)cc2)nn2c1NCCC2C1CCN(CC2CCN(CCC3CCN(c4ccc5c(c4)CN(C4CCC(=O)NC4=O)C5=O)CC3)CC2)CC1 (stereo not drawn) [Compound 318, 7-(1-((1-(2-(1-(2-(2,6-dioxopiperidin-3-yl)-1-oxoisoindolin-5-yl)piperidin-4-yl)ethyl)piperidin-4-yl)methyl)piperidin-4-yl)-2-(4-phenoxyphenyl)-4,5,6,7-tetrahydropyrazolo[1,5-a]pyrimidine-3-carboxamide]	1 to 10	> 75	> 0.05	> 10	–	–	–	–
Nc1ncnc2c1c(-c1ccc(Oc3ccccc3)cc1)nn2C1CCN(CC2CCN(CC3CCN(c4ccc(N5CCC(=O)NC5=O)cc4)CC3)CC2)CC1 [Compound 552]	–	–	–	< 1	–	< 0.01	> 90	< 1
Nc1ncnc2c1c(-c1ccc(Oc3ccccc3)cc1)nn2C1CCN(C2CCN(C(=O)N3CCN(CCCC4CCN(c5ccc6c(c5)C(=O)N(C5CCC(=O)NC5=O)C6=O)CC4)CC3)CC2)CC1 (stereo not drawn) [Compound 259, 5-(4-(3-(4-(4-(4-amino-3-(4-phenoxyphenyl)-1H-pyrazolo[3,4-d]pyrimidin-1-yl)-[1,4′-bipiperidine]-1′-carbonyl)piperazin-1-yl)propyl)piperidin-1-yl)-2-(2,6-dioxopiperidin-3-yl)isoindoline-1,3-dione]	> 10	> 75	> 0.05	1 to 10	–	–	–	–
Nc1ncnc2c1c(-c1ccc(Oc3ccccc3)cc1)nn2C1CCN(C2CCN(C(=O)N3CCN(CCC4CCN(c5ccc6c(c5)CN(C5CCC(=O)NC5=O)C6=O)CC4)CC3)CC2)CC1 (stereo not drawn) [Compound 248]	< 1	> 75	0.01 to 0.05	1 to 10	–	–	–	–
NC(=O)c1c(-c2ccc(Oc3ccccc3)cc2)nn2c1NCCC2C1CCN(C(=O)N2CCC(CC3CCN(c4ccc5c(c4)C(=O)N(C4CCC(=O)NC4=O)C5=O)CC3)CC2)CC1 (stereo not drawn) [Compound 277, 7-(1-(4-((1-(2-(2,6-dioxopiperidin-3-yl)-1,3-dioxoisoindolin-5-yl)piperidin-4-yl)methyl)piperidine-1-carbonyl)piperidin-4-yl)-2-(4-phenoxyphenyl)-4,5,6,7-tetrahydropyrazolo[1,5-a]pyrimidine-3-carboxamide]	< 1	> 90	< 0.01	1 to 10	–	–	–	–
Nc1ncnc2c1c(-c1ccc(Oc3ccccc3)cc1)nn2C1CCN(C2CCN(CCN3CCC(c4ccc(NC5CCC(=O)NC5=O)cc4)CC3)CC2)CC1 (stereo not drawn) [Compound 579, 3-((4-(1-(2-(4-(4-amino-3-(4-phenoxyphenyl)-1H-pyrazolo[3,4-d]pyrimidin-1-yl)-[1,4′-bipiperidin]-1′-yl)ethyl)piperidin-4-yl)phenyl)amino)piperidine-2,6-dione]	< 1	–	–	< 1	–	0.01 to 0.05	> 90	–
